The target of assay [1] is T1, CRTH2 (Homo sapiens, UniProt Q9Y5Y4).
T1 construct: polymorphonuclear cells (0.5 ml; 10^6/ml cells) in PBS containing 0.9 mM CaCl2 and 0.5 mM MgCl2; endogenous in cells; host or cells: polymorphonuclear cells (eosinophils gated by flow cytometry)
T1 sequence (Q9Y5Y4 1-395): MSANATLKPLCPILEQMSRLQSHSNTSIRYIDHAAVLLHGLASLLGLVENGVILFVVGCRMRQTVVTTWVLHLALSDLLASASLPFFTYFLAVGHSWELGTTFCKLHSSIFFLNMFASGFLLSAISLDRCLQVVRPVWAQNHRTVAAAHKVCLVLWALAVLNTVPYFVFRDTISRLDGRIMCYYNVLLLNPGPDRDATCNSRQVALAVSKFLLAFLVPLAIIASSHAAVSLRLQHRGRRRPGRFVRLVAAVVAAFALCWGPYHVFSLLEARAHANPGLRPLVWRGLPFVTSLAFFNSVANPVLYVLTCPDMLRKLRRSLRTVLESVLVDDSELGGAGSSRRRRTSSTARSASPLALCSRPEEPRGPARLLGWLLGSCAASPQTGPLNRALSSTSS
Kind of assay: DPBS CD11b Antagonist Assay. Particulars: polymorphonuclear cells in PBS, eosinophil CD11b expression, challenge with 15R-Methyl-PGD2 (10 nM). In kind it is cell-based. The method, then:
DPBS CD11b Antagonist Assay. The potential CRTH2 antagonist activity of certain compounds was tested using a CD11b expression assay using essentially the method described by Monneret et al. (J Pharmacol Exp Ther 304:349-55, 2003). Briefly, polymorphonuclear cells (0.5 ml; 10^6/ml cells) in PBS containing 0.9 mM CaCl2 and 0.5 mM MgCl2) were preincubated with various concentrations of test compounds at room temperature for 10 minutes before they were challenged with the agonist 15R-Methyl-PGD2 (10 nM). The incubations were terminated by the addition of ice-cold FACSFlow (BD Biosciences; Cat# 342003) and centrifugation (400 g for 5 minutes at 4° C.). The cells were then incubated for 30 minutes at 4° C. with a mixture of PE-labeled mouse anti-human VLA-4 (5 μl; BD Biosciences) and FITC-labeled mouse anti-human CD11b (10 μl; Beckman Coulter). The cells were then incubated with Optilyse C (0.25 ml; Beckman Coulter) for 15 minutes, centrifuged, and then fixed in PBS (0.4 ml; calcium and magnesium free) containing 1% formaldehyde. The distribution of fluorescence intensities among 60,000 cells was measured by flow cytometry. Eosinophils were gated out on the basis of their granularity (high side scatter) and labeling with VLA-4 (PE fluorescence). CD11b was then measured in the eosinophil region on the basis of fluorescence due to FITC. All data were corrected for the value obtained for the corresponding isotope control antibody.

Assay [2] has as its target T1, CRTH2. Kind of assay: Human Whole Blood CD11b Antagonist Assay. In kind it is cell-based. The conditions noted are these: eosinophil CD11b expression, challenge with 15R-Methyl-PGD2 (10 nM). The method, then: Human Whole Blood CD11b Antagonist Assay (modified from Nicholson, et al. Pulmonary Pharmacology and Therapeutics: 20 (2007); 52-59). The potential CRTH2 antagonist activity of certain compounds was tested in human whole blood using an assay that tests the ability of the compounds to block the CD11b expression in eosinophils by 15-R-methyl-PGD2. A CRTH2 antagonist should block CD11b expression by subsequently added 15-Methyl-PGD2. Human whole blood (200 μL) was incubated at 37° C. for 10 minutes in the presence of various concentrations of test compounds before being challenged with the agonist 15R-Methyl-PGD2 (10 nM). Reactions were terminated by the addition of ice-cold PBS+0.5% BSA+2 mMEDTA (1 mL) and centrifugation (300×g for 5 minutes at 4° C.) Cells were then incubated at 4° C. for 10 min in the presence of human IgG. Cells were then incubated for 30-45 min with a mixture of PE-Cy5-labeled mouse anti-human CD16 (10 ul; BD Biosciences) and FITC-labeled mouse anti-human CD11b (10 μL; Beckman Coulter.) After rinsing (1 mL ice-cold PBS+0.5% BSA+2 mMEDTA), red blood cells were lysed by the addition of 1 mL ice-cold H2O to the cell pellet for 30 sec-1 min immediately followed by the addition of 3.5% NaCl (300 μL.) Cells were then rinsed (2x−1 ml ice cold PBS+0.5% BSA+2 mMEDTA) and fixed in PBS containing 1% formaldehyde. The distribution of fluorescence intensities was measured by flow cytometry. Eosinophils were gated out on the basis of their granularity (high side scatter) and absence of CD-16. CD11b was then measured on this eosinophil population on the basis of fluorescence due to FITC.

Some results are limits rather than exact numbers.

`Cc1c(Cc2ccccc2S(=O)(=O)N2CCOCC2)c2c(n1CC(=O)O)C(C)(C)CCC2` [Example I-36, 2-(2,7,7-trimethyl-3-(2-(morpholinosulfonyl)benzyl)-4,5,6,7-tetrahydro-1H-indol-1-yl)acetic acid]: the IC50 in assay [1] was below 5 nM; in assay [2], 5 to 100 nM.
Taken in the same sequence, the figures for `Cc1c(Cc2ccc(S(=O)(=O)N3CCOCC3)cc2)c2c(n1CC(=O)O)CCCC2` [Example I-6, 2-(2-Methyl-3-(4-(morpholinosulfonyl)benzyl)-4,5,6,7-tetrahydro-1H-indol-1-yl)acetic acid] were below 5 nM and 100 to 500 nM.
The like results for `Cc1c(Cc2ccc(S(=O)(=O)N3CCCCC3)cc2)c2c(n1CC(=O)O)CCC(C)(C)C2` [Example I-13, 2-(2,5,5-Trimethyl-3-(4-(piperidin-1-ylsulfonyl)benzyl)-4,5,6,7-tetrahydro-1H-indol-1-yl)acetic acid] were, in that order, below 5 nM and 100 to 500 nM.
Taken in the same sequence, the figures for `CCOC(=O)N1CCN(S(=O)(=O)c2ccc(Cc3c4c(n(CC(=O)O)c3C)CCCC4)cc2)CC1` [Example I-5, 2-(3-(4-(4-(Ethoxycarbonyl)piperazin-1-ylsulfonyl)benzyl)-2-methyl-4,5,6,7-tetrahydro-1H-indol-1-yl)acetic acid] were below 5 nM and 5 to 100 nM.
As to `Cc1c(Cc2ccc(S(=O)(=O)N3CCCC3)cc2)c2c(n1CC(=O)O)CC(C)(C)CC2=O` [Example I-44, 2-(2,6,6-trimethyl-4-oxo-3-(4-(pyrrolidin-1-ylsulfonyl)benzyl)-4,5,6,7-tetrahydro-1H-indol-1-yl)acetic acid], the IC50 in assay [1] and in assay [2] was above 500 nM throughout.
Regarding `Cc1c(Sc2ccc(S(=O)(=O)N3CCCC3)cc2)c2c(n1CC(=O)O)CCC(C)(C)C2` [Example I-38, 2-(2,5,5-trimethyl-3-(4-(pyrrolidin-1-ylsulfonyl)phenylthio)-4,5,6,7-tetrahydro-1H-indol-1-yl)acetic acid], the concentration for half-maximal inhibition (IC50) in assay [1] is below 5 nM; in assay [2] it was above 500 nM.
The like results for `Cc1c(Cc2ccccc2S(=O)(=O)c2ccccc2)c2c(n1CC(=O)O)CC(C)(C)CC2=O` [Example I-48, 2-(2,6,6-trimethyl-4-oxo-3-(2-(phenylsulfonyl)benzyl)-4,5,6,7-tetrahydro-1H-indol-1-yl)acetic acid] were, in that order, below 5 nM and below 5 nM.
Consider `Cc1c(Sc2ccc(S(=O)(=O)N3CCOCC3)cc2)c2c(n1CC(=O)O)CC(C)(C)CC2=O` [Example I-41, 2-(2,6,6-trimethyl-3-(4-(morpholinosulfonyl)phenylthio)-4-oxo-4,5,6,7-tetrahydro-1H-indol-1-yl)acetic acid], for which the half-maximal inhibitory concentration (IC50) in assay [1] is 100 to 500 nM; in assay [2], above 500 nM.
Taken in the same sequence, the figures for `CCOC(=O)Cn1c(C)c(Cc2ccccc2S(=O)(=O)c2ccccc2)c2c1CC(C)(C)CC2=O` [Example I-63, Ethyl 2-(2,6,6-trimethyl-4-oxo-3-(2-(phenylsulfonyl)benzyl)-4,5,6,7-tetrahydro-1H-indol-1-yl)acetate] were 100 to 500 nM and 100 to 500 nM.
Take `Cc1c(Cc2ccccc2S(=O)(=O)N2CCCC2)c2c(n1CC(=O)O)CCC(C)(C)C2` [Example I-14, 2-(2,5,5-Trimethyl-3-(2-(pyrrolidin-1-ylsulfonyl)benzyl)-4,5,6,7-tetrahydro-1H-indol-1-yl)acetic acid]: the IC50 in assay [1] is below 5 nM; in assay [2], 5 to 100 nM.
Taken in the same sequence, the figures for `Cc1c(Cc2ccccc2S(=O)(=O)N2CCOCC2)c2c(n1CC(=O)O)CCC(F)(F)C2` [Example I-39, 2-(5,5-difluoro-2-methyl-3-(2-(morpholinosulfonyl)benzyl)-4,5,6,7-tetrahydro-1H-indol-1-yl)acetic acid] were below 5 nM and below 5 nM.
Taken in the same sequence, the figures for `Cc1c(Cc2ccc(S(=O)(=O)NC(C)C(C)(C)C)cc2)c2c(n1CC(=O)O)CCCC2` (centres unmarked) [Example I-3, 2-(3-(4-(N-(3,3-Dimethylbutan-2-yl)sulfamoyl)benzyl)-2-methyl-4,5,6,7-tetrahydro-1H-indol-1-yl)acetic acid] were below 5 nM and 5 to 100 nM.
The like results for `Cc1c(Cc2ccccc2S(=O)(=O)N2CCOCC2)c2c(n1[C@@H](C)C(=O)O)CCC(C)(C)C2` [Example I-34, (S)-2-(2,5,5-trimethyl-3-(2-(morpholinosulfonyl)benzyl)-4,5,6,7-tetrahydro-1H-indol-1-yl)propanoic acid] were, in that order, 5 to 100 nM and above 500 nM.
Consider `Cc1c(Sc2ccc(S(=O)(=O)N3CCCC3)cc2)c2c(n1CC(=O)O)CC(C)(C)CC2=O` [Example I-42, 2-(2,6,6-trimethyl-4-oxo-3-(4-(pyrrolidin-1-ylsulfonyl)phenylthio)-4,5,6,7-tetrahydro-1H-indol-1-yl)acetic acid], for which the half-inhibitory concentration (IC50) in assay [1] was 100 to 500 nM; in assay [2], above 500 nM.
The like results for `Cc1c(Cc2ccc(S(=O)(=O)NC(C)C)cc2)c2c(n1CC(=O)O)CCCC2` [Example I-10, 2-(3-(4-(N-Isopropylsulfamoyl)benzyl)-2-methyl-4,5,6,7-tetrahydro-1H-indol-1-yl)acetic acid] were, in that order, below 5 nM and 100 to 500 nM.
Taken in the same sequence, the figures for `Cc1c(Cc2ccccc2S(=O)(=O)c2ccccc2)c2c(n1CC(=O)O)CCCC2` [Example I-7, 2-(2-methyl-3-(2-(phenylsulfonyl)benzyl)-4,5,6,7-tetrahydro-1H-indol-1-yl)acetic acid] were below 5 nM and 5 to 100 nM.
Take `Cc1c(Cc2ccc(S(=O)(=O)NC3CC3)cc2)c2c(n1CC(=O)O)CCCC2` [Example I-8, 2-(3-(4-(N-Cyclopropylsulfamoyl)benzyl)-2-methyl-4,5,6,7-tetrahydro-1H-indol-1-yl)acetic acid]: the values for the IC50 in assay [1] and in assay [2] were below 5 nM and 5 to 100 nM, respectively.
Taken in the same sequence, the figures for `Cc1c(Cc2ccc(S(=O)(=O)N3CCOCC3)cc2)c2c(n1CC(=O)O)CC(C)(C)CC2=O` [Example I-45, 2-(2,6,6-trimethyl-3-(4-(morpholinosulfonyl)benzyl)-4-oxo-4,5,6,7-tetrahydro-1H-indol-1-yl)acetic acid] were above 500 nM and above 500 nM.
The like results for `CCOC(=O)N1CCN(S(=O)(=O)c2ccc(Cc3c4c(n(CC(=O)O)c3C)CCC(C)(C)C4)cc2)CC1` [Example I-12, 2-(3-(4-(4-(Ethoxycarbonyl)piperazin-1-ylsulfonyl)benzyl)-2,5,5-trimethyl-4,5,6,7-tetrahydro-1H-indol-1-yl)acetic acid] were, in that order, below 5 nM and 5 to 100 nM.

As a reminder, the IC50 is the concentration needed to halve the response being measured. Read a low IC50 as higher potency.

The values are drawn from patent US20110312945A1, “CRTH2 MODULATORS” (priority 2008, published 2011).
